From US6593480B2 (Abbott Laboratories, priority 1999, dated 2003)

Columns and labels:
[1] = target: T1, Human glucocorticoid receptors (Homo sapiens, UniProt P04150); experiment: Radioligand filter binding assay, displacement of 3(H)-dexamethasone from human glucocorticoid receptor cytosol; conditions: 1.7 μM test compound, inhibition of 3(H)-dex binding to hGR; for inhibition at 1.7 µM: read-out: GR BINDING (% Inhibition @ 1.7 μM)
T1 construct: made in house; host or cells: Sf9 insect cells, recombinant baculovirus (BAC-TO-BAC)
T1 sequence (P04150 1-777): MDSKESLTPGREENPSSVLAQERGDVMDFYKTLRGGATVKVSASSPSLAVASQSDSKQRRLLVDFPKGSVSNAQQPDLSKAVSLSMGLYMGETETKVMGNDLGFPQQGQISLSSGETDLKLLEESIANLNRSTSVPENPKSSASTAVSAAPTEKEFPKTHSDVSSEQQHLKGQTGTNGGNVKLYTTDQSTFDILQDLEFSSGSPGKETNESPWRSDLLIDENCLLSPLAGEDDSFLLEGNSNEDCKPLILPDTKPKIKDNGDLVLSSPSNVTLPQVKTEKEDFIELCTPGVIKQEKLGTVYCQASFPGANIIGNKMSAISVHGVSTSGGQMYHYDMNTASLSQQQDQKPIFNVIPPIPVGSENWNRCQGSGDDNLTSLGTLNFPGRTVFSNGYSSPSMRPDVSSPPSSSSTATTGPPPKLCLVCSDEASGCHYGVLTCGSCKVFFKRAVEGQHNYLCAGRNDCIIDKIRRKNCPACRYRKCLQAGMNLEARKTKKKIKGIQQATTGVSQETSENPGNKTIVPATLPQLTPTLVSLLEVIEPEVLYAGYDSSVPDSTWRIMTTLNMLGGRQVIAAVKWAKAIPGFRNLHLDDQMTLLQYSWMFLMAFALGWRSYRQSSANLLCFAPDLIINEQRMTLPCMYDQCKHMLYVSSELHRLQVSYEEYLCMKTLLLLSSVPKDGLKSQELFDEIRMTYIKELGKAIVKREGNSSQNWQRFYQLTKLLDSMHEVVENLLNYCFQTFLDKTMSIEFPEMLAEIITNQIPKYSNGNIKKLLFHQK
Experimental: Dexamethasone hereafter referred to as dex was purchased from SIGMA. […] Human glucocorticoid receptors were extracted from Sf9 cells infected with a recombinant baculovirus transfer vector containing the cloned hGR genes. […] The recombinant baculovi, uses expressing hGR were amplified and used to infect Sf9 cells. Infected cells were harvested 48 hrs post infection. […] The concentration of hGR in the extract was measured as specific ^3(H)-dex binding with the G25-assay as described in J. Steroid Biochem. Molec. […] The extract was aliquoted and stored at −70° C.
The filter binding assay: Dilution series of the test compounds and dex as reference were made from 10 mM (1 mM dex) stock solutions in DMSO. 10 μl of the dilutions was added in duplicates to the wells. The cell extracts were diluted 10 fold in EPMo +MTG buffer (1 mM EDTA, HPO4 20 mM (pH8), 6 mM MTG). […] 110 μl of the diluted ^3(H)-dex were added to the wells. The final concentration of hGR in the experiment was estimated to 1 nM. All preparations were made in ambient temperature (20-25° C.) on ice and with +4° C. temperated buffers. The plates were incubated over night at +4° C. (15-20hrs).
The incubation was stopped by filtration through GF/B filter on the Tomtec Cellharvester. The filtration on the Tomtec Cellharvester was programmed as follows: 1) Preparation before filtration with EP buffer (1 mM EDTA 20 mM HPO4 (pH8)) 2×(Wash/Asp 0.6 sec., Asp 0.5 sec.); 2) Prewet of GF/B filter with EP+PEI buffer (EP buffer, 0.3% Polyesthylenimine) (Asp 0.8 sec.). 3) Filtration/harvesting of the 96-well incubation plate 3×(Wash/Asp 0.6 sec., Asp 0.5 sec.). The GF/B filter was dried for at least 1 hr at 65° C. A MeltiLex scintillation wax was melted onto the filter with the Microsealer. The filter was placed in a samplebag, which was thereafter trimmed with scissors to fit the filter cassette. The cassette were placed in the Microbeta and measured for 1 min/position, returning ccpm (conrected counts per minute).
The Microbeta-instrument generates the mean cpm (counts per minute) value/minute and corrects for individual variations between the detectors thus generating corrected cpm values.

[2] = target: T2, progesterone receptor (PR) (Homo sapiens, UniProt P06401); experiment: Radioligand binding assay with progesterone receptor cytosol (similar protocol)
T2 sequence (P06401 1-933): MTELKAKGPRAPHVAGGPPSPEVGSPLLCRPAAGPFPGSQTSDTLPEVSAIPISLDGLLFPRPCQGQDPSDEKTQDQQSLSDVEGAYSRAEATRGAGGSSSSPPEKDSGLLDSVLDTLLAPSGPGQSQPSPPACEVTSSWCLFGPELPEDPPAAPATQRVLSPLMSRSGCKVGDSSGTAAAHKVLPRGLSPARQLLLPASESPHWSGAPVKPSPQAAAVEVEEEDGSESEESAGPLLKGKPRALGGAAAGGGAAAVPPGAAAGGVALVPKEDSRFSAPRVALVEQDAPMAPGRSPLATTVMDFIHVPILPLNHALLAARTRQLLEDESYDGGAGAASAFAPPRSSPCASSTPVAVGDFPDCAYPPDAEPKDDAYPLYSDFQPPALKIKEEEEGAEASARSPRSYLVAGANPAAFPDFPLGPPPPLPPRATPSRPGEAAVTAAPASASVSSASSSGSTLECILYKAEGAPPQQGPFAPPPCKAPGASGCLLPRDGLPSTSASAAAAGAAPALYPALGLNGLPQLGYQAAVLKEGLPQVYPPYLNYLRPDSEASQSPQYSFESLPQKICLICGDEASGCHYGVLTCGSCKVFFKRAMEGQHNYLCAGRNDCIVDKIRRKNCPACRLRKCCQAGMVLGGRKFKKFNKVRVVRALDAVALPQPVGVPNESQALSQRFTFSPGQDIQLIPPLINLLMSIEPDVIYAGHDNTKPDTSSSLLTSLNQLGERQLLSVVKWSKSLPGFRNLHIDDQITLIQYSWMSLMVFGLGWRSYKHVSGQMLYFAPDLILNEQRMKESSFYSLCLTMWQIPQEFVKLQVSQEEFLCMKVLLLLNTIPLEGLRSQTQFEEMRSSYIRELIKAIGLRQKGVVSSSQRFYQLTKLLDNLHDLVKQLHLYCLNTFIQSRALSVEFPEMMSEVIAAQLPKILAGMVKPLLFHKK
Source text: Methods for Radioligand Binding Studies with Human Glucocorticoid and Progesterone Receptor Cytosol
A similar protocol was employed to measure affinity of the compounds of the present invention for progesterone receptor (PR).

[3] = test system: obese diabetic db/db transgenic mice; conditions: cited from earlier work

| Compound | inhibition at 1.7 µM [1] [%] | IC50 [2] [µM] | melting point [°C] | mRNA levels of PEPCK and glucose-6-phosphate in the liver ([3]; liver, db/db mice) | reduction of plasma glucose levels ([3]; obese diabetic db/db transgenic mice) [%] | GR BINDING (% Inhibition @ 1.7 μM) [1] [%] |
| --- | --- | --- | --- | --- | --- | --- |
| COc1cccc2c1-c1ccc(NS(C)(=O)=O)c(C)c1C(c1cccc(C(F)(F)F)c1)O2 (stereo not drawn) [Example 1, (1-methoxy-6-(3-trifluoromethyl)phenyl-7-methyl-6H-dibenzo(b,d)pyran-8-yl)methanesulfonamide] | 82.1 | 5.63 | 217 to 218 | – | – | – |
| CC#C[C@]1(O)CC[C@H]2[C@@H]3CCC4=CC(=O)CCC4=C3[C@@H](c3ccc(N(C)C)cc3)C[C@@]21C [mifepristone] | – | – | – | reduces | 50 | – |
| COc1cccc2c1-c1ccc(NS(C)(=O)=O)cc1C(c1cccc(Oc3ccccc3)c1)O2 (stereo not drawn) [Example 139, N-[1-methoxy-6-(3-phenoxyphenyl)-6H-benzo[c]chromen-8-yl]methanesulfonamide] | 90.6 | > 1 | – | – | – | – |
| COc1cccc2c1-c1ccc(NS(C)(=O)=O)cc1[C@H](c1ccccc1)O2 [Example 24, 6S-(1-methoxy-6-phenyl-6H-dibenzo(b,d)pyran-8-yl)methanesulfonamide] | 88.9 | 0.8 | – | – | – | – |
| CS(=O)(=O)Nc1ccc2c(c1)C(c1ccccc1)Oc1cccc(OC(F)F)c1-2 (stereo not drawn) [Example 25, N-(1-difluoromethoxy-6-phenyl-6H-dibenzo[b,d]pyran-8-yl)methanesulfonamide] | 92.7 | 0.37 | – | – | – | – |
| (1-methoxy-6-(3-fluorophenyl)-6H-dibenzo(b,d)pyran-8-yl)methanesulfonamide [Example 77] | – | 0.48 | – | – | – | 90.4 |
| (1-methoxy-6-cyclohexyl-6H-dibenzo(b,d)pyran-8-yl)methanesulfonamide [Example 55] | – | 1 | – | – | – | 93.4 |
